Key:
Type in all cases: cell-based, mouse
[1] = test system: primary cultures of cerebral cortical astrocytes; test: Lactate release assay in astrocyte cultures; conditions: various concentrations, 30 minutes after application
Description: Primary cultures of cerebral cortical astrocytes were prepared from Swiss albino newborn mice (1-2 days old) as described [Pellerin L, Magistretti P J. Glutamate uptake into astrocytes stimulates aerobic glycolysis: a mechanism coupling neuronal activity to glucose utilization. Proc Natl Acad Sci USA. 1994 Oct. 25; 91(22):10625-9]. This procedure yields cultures that are >95% immunoreactive for glial fibrillary acidic protein.
Astrocytes are emerging as having significant roles in several homeostatic processes in the brain [Zuchero J B, Barres B A. Glia in mammalian development and disease. Development 2015 142: 3805-3809]. To evaluate the potential effects of Compound A (10 μM) on astrocyte metabolism, the uptake of glucose and lactate release were measured 30 minutes after application of compounds to the culture (FIGS. 2 and 3).
Lactate release into the medium was measured enzymatically by a modification of the enzymatic spectrophotometric method of Rosenberg and Rush [Rosenberg J C, Rush B F. An enzymatic-spectrophotometric determination of pyruvic and lactic acid in blood. Methodologic aspects. Clin Chem. 1966; 12(5):299-307.]. Incubations were carried out exactly as described for [3H]2DG uptake experiments except for the fact that no tracer and no phenol red (which otherwise interferes with the spectrophotometric determination of lactate) were present in the incubation medium. […]

[2] = test system: primary brain cell cultures; test: NAD/NADH cycling assay; conditions: after 30 min in the presence of the compound
Description: Cycling assays for nicotinamide adenine dinucleotides was performed as described [Yang J, et al, Lactate promotes plasticity gene expression by potentiating NMDA signaling in neurons. Proc Natl Acad Sci USA. 2014. 111(33):12228-33]. Briefly, cells were rinsed two times with ice-cold PBS, harvested in 400 μL ice-cold carbonate-bicarbonate buffer (100 mM Na2CO3 and 20 mM NaHCO3 containing 10 mM nicotinamide to inhibit NADase), and frozen at −80° C. Cell membranes were lysed by heat shock in a 37° C. water bath and immediately chilled on ice. Extracts were centrifuged at 12,000×g for 30 min at 4° C. and half of the supernatant was heated at 60° C. for 30 min to denature NAD. Twenty-five microliters of the heated extract (containing NADH only), 100 μL of the unheated extract (containing NAD and NADH), and 50 μL of standards of known NADH (Roche) concentrations (ranging from 0.0625 to 1 μM) dissolved in carbonate bicarbonate buffer were loaded onto a 96-well microplate along with blanks (carbonate-bicarbonate buffer). Volumes were adjusted to 100 μL with carbonate-bicarbonate buffer and 150 μL of a reaction buffer was added into each well. […] The absorbance was followed spectrophotometrically at 560 nm every 15 s over a 5-min period (Safire 2; Tecan). Blank values were subtracted from all samples and NAD amounts were calculated by subtracting NADH values from total NAD+NADH values.

[3] = test system: TrkB receptor; test: Activation of TrkB receptor: phosphorylation in cortical neurons (WES capillary immunoassay)
Description: On the day of preparation (DIV1) cortical neurons were seeded on poly-D-lysine pre-coated 6-well plates at a density of 1.25*10^6 cells per well and cultured at 37° C.; 95% humidity and 5% CO2 until […] with a half medium exchange on DIV4-6. On DIV10 cells are treated with test item TI (SND118) and control Rh (7,8DHF) at different concentrations for 15 min. The experiment was carried out with n=6 technical replicates per condition, vehicle treated cells served as control. Cells were lysed in 150 μL cold RIPA buffer [50 mM Tris pH 7.4, 1% Nonidet P40, 0.25% Na-deoxy-cholate, 150 mM NaCl, 1 mM EDTA supplemented with freshly added 1 μM NaF, 0.2 mM Na-ortho-vanadate, 80 μM Glycerophosphate, protease (Calbiochem) and phosphatase (Sigma) inhibitor cocktail.
Phosphorylation of the TrkB receptor was detected using the following rabbit anti-Tyr specific antibodies: anti-TrkB Y515, Y706/707 and Y816 and compared with total TrkB detected with anti-TrkB antibody (Abcam). Antibody dilutions and protein amounts were optimized for signal specificity.
Automated separation and immunostaining of total and phospho TrkB was carried out using a capillary-based immunoassay, WES™ (Proteinsimple®). Samples were applied to a 25 capillary cartridge with a 2 to 440 kDa matrix, at an optimized total protein concentration. Sample loading, separation, immunoprobing, washing, detection and quantitative data analysis were performed automatically by WES™ Western system (Compass software V 4.0.0). The areas under the curve were used for the analysis and the phosphorylated versus vehicle or total TrkB signal ratio was calculated and used for statistics.

[4] = test system: cortical neurons with MPP+ lesion; test: MPP+ induced apoptosis in cortical neurons (YO-PRO-1); conditions: 0.5 and 1 μM, 24 h MPP+ lesion
Description: (§1) Mouse cortical neurons were prepared as described. At DIV8 cells were treated with the test and control MK801 compounds for 1 h, before the addition of MPP+(Sigma, D048) at a final concentration of 100-200 μM. The experiment was carried out with n=6 technical replicates per condition, vehicle and MPP+ alone controls were included. After 8 h determination of ROS was conducted and after 24 h of MPP+ lesion on DIV9 cells were subject to the apoptosis measurement. Apoptosis was determined using YO-PRO™-1 Iodide (Invitrogen; Y3603). Part of supernatant of the cultivated cells was removed and 10 μL of a 50 μM YO-PRO 1 solution in PBS is added to the remaining 90 μL to result in a final concentration of 5 μM YO-PRO 1 in well. Incubation for 15 min in the incubator at 37° C. was performed (light protected) followed by discarding the supernatant. 140 μL PBS was added to each well and the fluorescence was measured using a plate-reader (Cytation 5, BioTek) at excitation wavelength 485 nm to Emission wavelength 535 nm.

[5] = test system: cortical neurons with MPP+ lesion; test: MPP+ induced ROS in cortical neurons (DCFDA); conditions: 0.5 and 1 μM, 8 h MPP+ lesion
Description: as §1
ROS generation was measured with Abcam's DCFDA-Cellular Reactive Oxygen Species Detection Assay (ab 113851). […] Cells were then incubated with the test items and lesion for 8 h and thereafter the fluorescent signal was measured at 485 nm/535 nm (Cytation 5, BioTek).

phospho Tyr706/707 signal normalized to the TrkB [3]: significant increase
phosphorylation of TrkB at Tyr residue 706/707 versus the vehicle ([3]; SND118 2 μM): increased slightly
Compound: O=c1cc(-c2ccc(CCCC[P+](c3ccccc3)(c3ccccc3)c3ccccc3)cc2)oc2c(O)c(O)ccc12 [SND118, 4-[4-(7,8-dihydroxy-4-oxo-chromen-2-yl)phenyl]butyltriphenylphosphonium bromide]
release of L-lactate [1]: increased the release of L-lactate
production of NADH (NAD/NADH ratio) [2]: increased production of ATP and NADH
phosphorylation of the TrkB receptor at sites Tyr 515 and Tyr 816 ([3]; 1 and 2 μM): induced statistically significant phosphorylation
apoptosis induced by MPP+ (YO-PRO-1) [4]: significantly inhibited apoptosis
level of ROS induced by MPP+ (DCFDA) [5]: decreased the level of ROS

Reference: US20220411448A1, “CHROMENE-4-ONE DERIVATIVES AS BRAIN-DERIVED NEUROTROPHIC FACTOR (BDNF) MIMETICS” (FLORATEK PHARMA AG, priority 2019, published 2022)
